# Values of other authors in US20040258778A1, “Lactation cessation and breast engorgement compositions and method of use” (priority 2003, published 2004).
# Tested on: lactating women
smiles,measurement,setting,value
CC(C)C[C@H]1C(=O)N2CCC[C@H]2[C@]2(O)O[C@](NC(=O)[C@@H]3C=C4c5cccc6[nH]c(Br)c(c56)C[C@H]4N(C)C3)(C(C)C)C(=O)N12 [bromocriptine],"rebound engorgement, share of the time","after a two-week course of treatment ends, according to the official labeling",up to 40%
same,very serious side effects reported,"use to suppress lactation (Iffy, 1998)","strokes, seizures (convulsions), intracranial bleeding, cerebral edema, and heart attacks"
